Reference: ChEMBL document CHEMBL4834417, “Diverse Polycyclic Polyprenylated Acylphloroglucinol Congeners with Anti-Nonalcoholic Steatohepatitis Activity from Hypericum forrestii” (J Nat Prod, 2021)
Activity calls are given as the source filed them.

Assays:
Assay type in all cases: functional, cell-based
L02 [1] = test: Anti-nonalcoholic steatohepatitis activity in FFA-induced human L02 cells assessed as downregulation of CD36 mRNA expression at 10 uM by QRT-PCR analysis
L02 [2] = test: Anti-nonalcoholic steatohepatitis activity in FFA-induced human L02 cells assessed as upregulation of ACOX1 mRNA expression at 10 uM by QRT-PCR analysis
L02 [3] = test: Anti-nonalcoholic steatohepatitis activity in FFA-induced human L02 cells assessed as reduction in lipid droplets at 5 uM after 48 hrs by Oil red O staining based assay
L02 [4] = test: Anti-nonalcoholic steatohepatitis activity in FFA-induced human L02 cells assessed as downregulation of FASN mRNA expression at 10 uM by QRT-PCR analysis
L02 [5] = test: Anti-nonalcoholic steatohepatitis activity in FFA-induced human L02 cells assessed as reduction in lipid droplets after 48 hrs by Oil red O staining based assay; settings: dose 5-10 µM
L02 [6] = test: Anti-nonalcoholic steatohepatitis activity in FFA-induced human L02 cells assessed as upregulation of PPARalpha mRNA expression at 10 uM by QRT-PCR analysis

Measured: Activity

CC(C)=CCC/C(C)=C/C[C@]1(CC=C(C)C)C(=O)C(C(=O)c2ccccc2)=C2OC(C)(C)[C@@H]3C[C@]23C1=O
active: L02 [1] | L02 [2] | L02 [3] | L02 [4] | L02 [5] Dose-Dependent Effect | L02 [6]

CC(C)=CCC[C@]1(C)[C@@H](CC=C(C)C)C[C@]23C[C@H](C(C)(C)O)OC2=C(CC=C(C)C)C(=O)[C@@]1(C(=O)c1ccccc1)C3=O
active: L02 [1] | L02 [2] | L02 [3] | L02 [4] | L02 [5] Dose-Dependent Effect | L02 [6]
